Five compounds from ChEMBL document CHEMBL1201862, “PubChem BioAssay data set” (2004) can be followed below.

The subject of one assay is P388/ADR. Put plainly: cells. It counts as functional. The settings on record: Mus musculus.
For the next assay, the system named is P388. Put plainly: cells. It counts as functional. The settings on record: Mus musculus.
The test system of another assay is SN12K1. The experiment in a line: cells. It counts as functional. The settings on record: Homo sapiens.
In assay [1] the test system is Vero. Put plainly: cells. It counts as functional. The conditions noted are these: Chlorocebus sabaeus.
Assay [2] concerns Vero. Put plainly: cells. The settings on record: Chlorocebus sabaeus. It counts as functional, cell-based.
Assay [3] concerns Vero. Put plainly: mammalian cell viability reduction – secondary assay, cytotoxicity control for West Nile virus antiviral project, dose response (AID 1650). It counts as functional. The conditions noted are these: Chlorocebus sabaeus.
For assay [4], the system named is BJ. The experiment in a line: BJ-TERT-LT-ST fibroblast viability loss – cell-based, RAS-independent, luminescence, dose response (AID 1935).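 Also: BJ fibroblasts immortalized with TERT plus LT and ST oncogenes.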 The conditions noted are these: Homo sapiens. It counts as functional.
The target of assay [5] is T1, Corticotropin-releasing factor receptor 2/Corticotropin-releasing factor-binding protein (Homo sapiens, UniProt P24387+Q13324).
T1 sequence (Q13324 whole entry): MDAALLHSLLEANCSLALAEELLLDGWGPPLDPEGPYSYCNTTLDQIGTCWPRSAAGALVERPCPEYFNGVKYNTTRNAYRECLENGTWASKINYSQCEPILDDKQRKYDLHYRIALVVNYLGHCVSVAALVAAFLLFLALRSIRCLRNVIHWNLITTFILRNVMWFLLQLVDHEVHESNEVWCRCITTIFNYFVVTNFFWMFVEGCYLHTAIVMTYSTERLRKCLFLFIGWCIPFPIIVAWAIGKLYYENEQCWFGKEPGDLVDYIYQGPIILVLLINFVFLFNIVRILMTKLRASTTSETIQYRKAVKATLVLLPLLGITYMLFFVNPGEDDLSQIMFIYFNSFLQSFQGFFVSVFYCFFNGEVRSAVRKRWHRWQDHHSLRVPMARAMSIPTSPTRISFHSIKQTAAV
T1 sequence (P24387 whole entry): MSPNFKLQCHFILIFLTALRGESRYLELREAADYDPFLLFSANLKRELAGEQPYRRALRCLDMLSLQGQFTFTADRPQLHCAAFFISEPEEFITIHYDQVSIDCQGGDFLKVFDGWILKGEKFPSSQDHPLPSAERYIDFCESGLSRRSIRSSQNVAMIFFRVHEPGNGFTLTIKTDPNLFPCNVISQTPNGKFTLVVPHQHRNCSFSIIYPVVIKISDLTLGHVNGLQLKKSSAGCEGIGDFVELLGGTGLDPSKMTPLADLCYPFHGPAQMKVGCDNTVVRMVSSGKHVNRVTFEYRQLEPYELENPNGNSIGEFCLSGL
Put plainly: activators of CRF receptor 2 with binding protein – uHTS hits, confirmation (AID 602473). It counts as functional. The settings on record: read-out: EC50_Mean.

The nature of assay [6]: DRD fibroblast viability loss – cell-based, non-viral oncogenic, luminescence, dose response (AID 1934). It counts as functional. The conditions noted are these: Homo sapiens.
Assay [7] deals with BJ. Put plainly: BJ-TERT fibroblast viability loss – cell-based, RAS-independent, luminescence, dose response (AID 1933). The settings on record: Homo sapiens. It counts as functional.
The test system of assay [8] is BJ. The experiment in a line: cells. It counts as functional, cell-based. The settings on record: Homo sapiens.
Assay [9] addresses T1, Corticotropin-releasing factor receptor 2/Corticotropin-releasing factor-binding protein. Put plainly: Dose Response confirmation of uHTS hits for small molecule antagonists of the CRF-binding protein and CRF-R2 receptor complex. It counts as functional. The conditions noted are these: read-out: IC50_Mean.
For assay [10], the system named is HEK293. The experiment in a line: inhibition of NOD1-driven NF-kB reporter – cell-based, luminescence, uHTS, primary screen (AID 1578). It counts as functional. The settings on record: Homo sapiens.
Assay [11] concerns HEK293. The experiment in a line: NOD2 signaling inhibitors in MDP-stimulated cells, cell-based, uHTS, luminescence (AID 2001). The settings on record: Homo sapiens. It counts as functional.
Assay [12] concerns HEK293. Put plainly: cells. It counts as functional, cell-based. The conditions noted are these: Homo sapiens.
A short description of assay [13]: A Cell Based Secondary Assay To Explore Cytotoxicity of Compounds that Sensitize Mycobacterium Tuberculosis to Beta-Lactam Antibiotics. It counts as functional.
For assay [14], the system named is HEK293. Put plainly: cells. It counts as functional, cell-based. The settings on record: Homo sapiens. This is another data set of the same source.
The target in the next assay is T2, Bcl-2-related protein A1 (Mus musculus, UniProt Q07440).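 Also: confirmatory dose–response counterscreen on Bfl-1, used to check hits from a UBC13 polyubiquitin inhibitor campaign.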
T2 sequence (Q07440 whole entry): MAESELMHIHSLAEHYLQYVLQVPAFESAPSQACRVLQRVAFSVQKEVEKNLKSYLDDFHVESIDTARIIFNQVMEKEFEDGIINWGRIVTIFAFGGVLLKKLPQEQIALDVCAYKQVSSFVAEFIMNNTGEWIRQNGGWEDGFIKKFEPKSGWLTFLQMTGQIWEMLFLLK
It counts as functional.

Assay [15] is described as follows: viability of PTEN-deleted HCT116 cells – cell-based, HCT116 PTEN knockout, dose response (AID 1047).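 Also: HCT116 colon tumor cells with PTEN knocked out; cells exposed to compound for 60 hours before readout; potency for loss of cell viability measured by luminescence.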 It counts as functional.
Assay [16] concerns the target T3, Ubiquitin-conjugating enzyme E2 N (Homo sapiens, UniProt P61088).
T3 sequence (P61088 whole entry): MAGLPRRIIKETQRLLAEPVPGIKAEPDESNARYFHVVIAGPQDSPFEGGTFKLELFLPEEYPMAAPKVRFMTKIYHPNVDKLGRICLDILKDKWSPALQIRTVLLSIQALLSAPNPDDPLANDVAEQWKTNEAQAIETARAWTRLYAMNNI
It counts as functional.

The next assay deals with Streptococcus. The experiment in a line: GAS UMAA2166 growth inhibition – luminescence, BacTiterGlo, counter-screen for streptokinase expression inhibitor project, dose response (AID 1915).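 Also: potency for reduction of bacterial viability or growth.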 It counts as functional, organism-based. In general terms: The purpose of a counterscreen is to sort out artefacts and off-target activity.
Another assay addresses T4, Streptokinase A (Streptococcus pyogenes serotype M1, UniProt P10520).
T4 sequence (P10520 whole entry): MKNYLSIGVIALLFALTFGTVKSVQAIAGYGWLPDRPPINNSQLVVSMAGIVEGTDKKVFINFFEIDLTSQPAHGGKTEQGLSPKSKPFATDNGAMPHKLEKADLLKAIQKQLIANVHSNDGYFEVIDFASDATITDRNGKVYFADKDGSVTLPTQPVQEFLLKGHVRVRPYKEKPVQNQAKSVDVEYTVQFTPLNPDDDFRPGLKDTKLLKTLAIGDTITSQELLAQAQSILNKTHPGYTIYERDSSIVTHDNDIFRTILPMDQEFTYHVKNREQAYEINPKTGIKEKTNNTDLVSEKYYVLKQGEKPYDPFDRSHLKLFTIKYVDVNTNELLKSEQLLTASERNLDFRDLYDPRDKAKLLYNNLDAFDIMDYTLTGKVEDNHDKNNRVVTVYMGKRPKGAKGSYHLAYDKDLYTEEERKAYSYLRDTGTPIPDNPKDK
Put plainly: viability-normalized secreted streptokinase activity reduction – plasminogen activation absorbance, OD405, dose response (AID 1914).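 Also: secreted streptokinase activity via plasminogen activation per viability signal from cell pellet.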 It counts as functional, Streptococcus pyogenes M1 GAS.

Assay [17] can be described thus: viability of HCT116 lacking mutant beta-catenin – cell-based, human colon tumor, dose response (AID 1045).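 Also: HCT116 colon tumor cells with beta catenin knocked out; cells exposed to compound for 60 hours.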 It counts as functional.
The nature of assay [18]: viability loss of HPDE-C7K cells – cell-based, fluorescence, HTS, primary screen (AID 431). It counts as functional. The conditions noted are these: Homo sapiens.
Assay [19] is described as follows: HPDE-C7 pancreatic duct cell viability loss – fluorescence, HTS (AID 430). The conditions noted are these: Homo sapiens. It counts as functional, cell-based.
Assay [20] deals with T5, Long-chain-fatty-acid--AMP ligase FadD28 (Mycobacterium tuberculosis, UniProt P9WQ59).
T5 sequence (P9WQ59 whole entry): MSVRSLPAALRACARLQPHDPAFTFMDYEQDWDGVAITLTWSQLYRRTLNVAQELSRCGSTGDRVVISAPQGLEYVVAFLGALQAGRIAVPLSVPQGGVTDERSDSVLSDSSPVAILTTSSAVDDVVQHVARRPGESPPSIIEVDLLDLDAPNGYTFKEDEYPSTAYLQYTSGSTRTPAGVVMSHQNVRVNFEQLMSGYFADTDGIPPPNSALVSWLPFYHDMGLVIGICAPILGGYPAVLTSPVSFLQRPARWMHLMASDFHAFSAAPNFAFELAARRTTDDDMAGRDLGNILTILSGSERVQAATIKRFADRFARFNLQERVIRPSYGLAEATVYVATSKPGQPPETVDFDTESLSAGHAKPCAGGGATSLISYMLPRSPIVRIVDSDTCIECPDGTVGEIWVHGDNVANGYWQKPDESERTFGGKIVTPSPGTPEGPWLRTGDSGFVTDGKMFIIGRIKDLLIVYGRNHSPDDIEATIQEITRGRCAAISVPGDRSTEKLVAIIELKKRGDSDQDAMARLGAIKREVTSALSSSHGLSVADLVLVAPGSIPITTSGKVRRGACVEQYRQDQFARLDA
Put plainly: Fluorescence polarization aasay to screen for inhibitors that compete for the binding of FadD28 to a bisubstrate Measured in Biochemical System Using Plate Reader - 2147-01_Inhibitor_Dose_CherryPick_Activity. It counts as functional, Mycobacterium tuberculosis H37Rv. Background: Polarisation of emitted light reports the rotation of a fluorescent probe.

The test system of assay [21] is Streptococcus sp. 'group A'. The experiment in a line: Streptococcus pyogenes SK(-)GAS viability under kanamycin – luminescence, BacTiterGlo, confirmation, counter-screen for streptokinase expression inhibitor project, dose response (AID 1900). It counts as functional, organism-based.
Assay [22] deals with T3, Ubiquitin-conjugating enzyme E2 N. It counts as functional. This is another data set of the same source.

The source made the active and inactive calls.

For orientation: GI50 means the concentration that inhibits growth by half. Take `COc1ccc2c3c1O[C@H]1C[C@@H](O)C=C[C@@]31CCN(C)C2` [GALANTAMINE]: the GI50 in the assay on P388/ADR, in the assay on P388 and with SN12K1 was > 150 µM (inactive) in each case.
As usually defined, the CC50 is the concentration giving 50% cytotoxicity. `CN(C)c1ccc(C(=O)N/N=C/C23CC[C@@H](O)CC2(O)CC[C@@H]2[C@@H]3CCC3(C)C(C4=CC(=O)OC4)CCC23O)cc1` (stereo not given in full): the CC50 with Vero [1] is 22 µM (active); in the assay on Vero [3], 17.9 µM (active). The IC50 was > 25 µM (active) with Vero [2] and > 47.1 µM (inactive) in assay [9]. The EC50 with BJ [4] is 19 µM (active); in assay [5] it was > 53 µM (inactive); in assay [6], 3.56 µM (active); in the assay with BJ [7], 3.63 µM (active); in the assay on BJ [8], 14.2 µM (active).
With `CC1OC1C(=O)C1(O)C(C)C(O)C23OC2(C(O)c2c(O)cccc2C3=O)C1O` (stereo not given) [CERVICARCIN], the GI50 with P388/ADR is 0.18 µM (active); with P388, 0.144 µM (active); with SN12K1 it was 0.225 µM (active).
On to `Cn1c(/C=C/c2ccc(Cl)cc2)c([N+](=O)[O-])c(=O)n(C)c1=O`, for which the EC50 in the assay with HEK293 [10] is 16 µM (active). For the same compound, the IC50 in the assay on HEK293 [11] is 8.84 µM (active); with HEK293 [12], > 20 µM (inactive); in the assay on Vero [2], > 25 µM (active); in the assay on HEK293 [14] it was 8.13 µM (active). Further, the CC50 in the assay with Vero [1] was 19.1 µM (active); in the assay on Vero [3], 15.7 µM (active); in assay [13] it was 30 µM (active).
Broadly, the AC50 is the concentration at which the activity in the assay is half-maximal. As for `CCCCCCCCCCCCCCC[C@@H](O)[C@@H](N)CO` [DIHYDROSPINGOSINE], the IC50 at Bcl-2-related protein A1 was > 20 µM (inactive); in the assay on Vero [2] it was > 25 µM (active); in assay [16] it was 15.5 µM (active); in assay [22], 13.4 µM (active). Moreover, the EC50 in assay [15] was 8.66 µM (active); in the assay on Streptococcus, 8.91 µM (active); at Streptokinase A, > 150 µM (not active); in [17], 7.58 µM (active); in [18] it was 9.93 µM (active); in assay [19], 14 µM (active). Besides, the EC50 in assay [21] was 1.34 µM (active). Besides, the half-maximal activity concentration (AC50) in assay [20] is 5.6 µM (active).
